Assays:
[1] = Dynamic light scattering (DLS) of LNP preparations: size (diameter) and polydispersity; assay type: physicochemical; settings: Table D; LNP formulation ratio 47.5:40:2.5:10, ABE mRNA + PCSK9 sgRNA 1:1
Protocol: A ratio of aqueous to organic solvent of approximately 2:1 or 3:1 was maintained during mixing using differential flow rates. After mixing, LNP preparations were collected, diluted in phosphate buffer saline (PBS) or Tris-buffered saline (TBS) (approximately 1:1 v/v). Further buffer exchange was conducted using dialysis in PBS or TBS at 4° C. for 4 to 24 hours against a 20 kDa filter. After this initial dialysis, each individual LNP preparation may be characterized via dynamic light scattering (DLS) to measure the size (e.g., diameter) and polydispersity. LNP preparations falling within specific diameter and polydispersity ranges were pooled, and further dialyzed against PBS or TBS at 4° C. for 1 to 4 hours against a 100 kDa dialysis cassette. After the second dialysis, LNP preparations were sterile filtered using 0.22 μm filter and stored at 4° C. for further use.
(§1) LNP preparations are formed by microfluidic mixing of the lipid and NA solutions using a Precision Nanosystems NanoAssemblr Ignite Instrument, according to the manufacturer's protocol. A 3:1 ratio of aqueous to organic solvent is maintained during mixing using differential flow rates. After mixing, LNP preparations are collected, diluted in PBS (approximately 2:1 v/v), and further buffer exchange is conducted using dialysis in PBS at 4° C. for 8 to 24 hours against a 20 kDa filter. After this initial dialysis, each individual LNP preparation is characterized via dynamic light scattering (DLS) to measure size and polydispersity. pKa of a subpopulation of LNP preparations is measured via TNS assay. After dialysis, LNP preparations are sterile filtered using 0.22 micron sterile filter and stored at 4° C. for further use. In some embodiments, LNP preparations may be concentrated using 100 kDa Amicon filters per manufacturer's protocol.
DLS-LNP preparation hydrodynamic diameter and polydispersity index (PDI) is measured using high throughput dynamic light scattering (DLS) (DynaPro plate reader II, Wyatt). LNP preparations are diluted 1×PBS to an appropriate concentration and analyzed.

[2] = Encapsulation efficiency of LNP preparations (unlysed and lysed LNPs); assay type: physicochemical; settings: Table D; LNP formulation ratio 47.5:40:2.5:10, ABE mRNA + PCSK9 sgRNA 1:1
Protocol: Concentration of NA is determined by Qubit microRNA kit (for siRNA) or HS RNA kit (for mRNA) per manufacturer's instructions. Encapsulation efficiency is determined by measuring unlysed and lysed LNPs.

[3] = pKa of LNP preparations via TNS assay; assay type: physicochemical; settings: Table D; LNP formulation ratio 47.5:40:2.5:10
Protocol: as §1

PCSK9 target site = assay: In vivo base editing with LNP-delivered ABE mRNA and sgRNA targeting PCSK9; settings: Balb/c mice, IV tail vein, 0.03 mg/kg total RNA, 4 days after dosing
Protocol: Lipid nanoparticle components are dissolved in 100% ethanol at specified lipid component molar ratios. mRNA encoding an adenine base editor and a chemically-modified sgRNA is dissolved at a mass ratio of 1:1 in 10 mM citrate, 100 mM NaCl, pH 4.0, resulting in a concentration of NA cargo of approximately 0.22 mg/mL. LNP preparations are formulated with molar ratios of either 50% Ionizable Lipid:38.5% Cholesterol:1.5% PEG2000-DMG: 10% DSPC or 47.5% Ionizable Lipid:40% Cholesterol:2.5% PEG2000-DMG: 10% DSPC both at a total lipid to NA molar ratio of 6.
as §1
Male Balb/C mice aged approximately 8-12 weeks are used in the experiments described herein. Each mouse is temporarily restrained, and LNP preparations are administered IV via tail vein injection. Age-matched mice are also used to administer vehicle (1×PBS) via tail vein injection as a control. […]
For base editing, mRNA encoding an adenine base editor (ABE) and a guide RNA (sgRNA) targeting PCSK9 at 1:1 (mass ratio) are coencapsulated in LNP preparations as described herein. […] Base editing is determined by performing targeted deep sequencing analysis at the PCSK9 target site using extracted genomic DNA.

Row | Diameter (nm) [1] [nm] | EE (%) [2] [%] | pKa [3] | SMILES | Liver Editing A->G (%) (PCSK9 target site)
1 | 77.15 | 97.7 | 6.78 | CCCCCCC(CCC(=O)OCC(COC(=O)CCCCCC(=O)OCC=C(C)CCC=C(C)CCC=C(C)C)COC(=O)CCCCCC(=O)OCC=C(C)CCC=C(C)CCC=C(C)C)OC(=O)NCCN1CCCC1 (stereo not drawn) [Example 14, 1-{2-[({7-oxo-7-[(3,7,11-trimethyldodeca-2,6,10-trien-1-yl)oxy]heptanoyl}oxy)methyl]-3-{[4-({[2-(pyrrolidin-1-yl)ethyl]carbamoyl}oxy)decanoyl]oxy}propyl}7-(3,7,11-trimethyldodeca-2,6,10-trien-1-yl) heptanedioate] | 23.6
2 | 73.3 | 96.1 | 6.72 | C=CC(C)(CCC=C(C)CCC=C(C)C)OC(=O)CCCCCC(=O)OCC(COC(=O)CCCCCC(=O)OC(C)(C=C)CCC=C(C)CCC=C(C)C)COC(=O)CCC(CCCCCC)OC(=O)NCCN1CCCC1 (stereo not drawn) [Example 13, 1-{2-[({7-oxo-7-[(3,7,11-trimethyldodeca-1,6,10-trien-3-yl)oxy]heptanoyl}oxy)methyl]-3-{[4-({[2-(pyrrolidin-1-yl)ethyl]carbamoyl}oxy)decanoyl]oxy}propyl}7-(3,7,11-trimethyldodeca-1,6,10-trien-3-yl) heptanedioate] | 1.2
3 | 74.1 | 98.5 | 6.32 | CCCCCCC(CCC(=O)OCC(COC(=O)CCCCCC(=O)OCC=C(C)CCCC(C)CCCC(C)CCCC(C)C)COC(=O)CCCCCC(=O)OCC=C(C)CCCC(C)CCCC(C)CCCC(C)C)OC(=O)NCCN1CCCC1 (stereo not drawn) [Example 15, 1-{2-[({7-oxo-7-[(3,7,11,15-tetramethylhexadec-2-en-1-yl)oxy]heptanoyl}oxy)methyl]-3-{[4-({[2-(pyrrolidin-1-yl)ethyl]carbamoyl}oxy)decanoyl]oxy}propyl}7-(3,7,11,15-tetramethylhexadec-2-en-1-yl) heptanedioate] | 15.7

Reference: patent US20260176252A1, “IONIZABLE LIPIDS WITH BRANCHED HEAD GROUPS” (Beam Therapeutics Inc., priority 2023, published 2026)
